Results from ChEMBL document CHEMBL4619795, “Establishing the Structure-Activity Relationship of Daptomycin” (ACS Med Chem Lett, 2020).

Assays:
Format in all cases: functional
Staphylococcus aureus [1] = test: Antibacterial activity against methicillin-resistant Staphylococcus aureus 88 assessed as bacterial growth inhibition in presence of 50 ug/ml calcium ions by CLSI protocol based broth microdilution method
Staphylococcus aureus [2] = test: Antibacterial activity against methicillin-resistant Staphylococcus aureus 14 assessed as bacterial growth inhibition in presence of 50 ug/ml calcium ions by CLSI protocol based broth microdilution method
Enterococcus [3] = test: Antibacterial activity against Enterococcus 60 assessed as bacterial growth inhibition in presence of 50 ug/ml calcium ions by CLSI protocol based broth microdilution method
Enterococcus faecalis [4] = test: Antibacterial activity against Enterococcus faecalis ATCC 29212 assessed as bacterial growth inhibition in presence of 50 ug/ml calcium ions by CLSI protocol based broth microdilution method
Enterococcus faecalis [5] = test: Antibacterial activity against Streptococcus faecalis assessed as bacterial growth inhibition in presence of 50 ug/ml calcium ions by CLSI protocol based broth microdilution method
Staphylococcus aureus [6] = test: Antibacterial activity against methicillin-resistant Staphylococcus aureus 11 assessed as bacterial growth inhibition in presence of 50 ug/ml calcium ions by CLSI protocol based broth microdilution method
Staphylococcus aureus [7] = test: Antibacterial activity against methicillin-resistant Staphylococcus aureus 86 assessed as bacterial growth inhibition in presence of 50 ug/ml calcium ions by CLSI protocol based broth microdilution method
Enterococcus [8] = test: Antibacterial activity against Enterococcus 6 assessed as bacterial growth inhibition in presence of 50 ug/ml calcium ions by CLSI protocol based broth microdilution method
Staphylococcus aureus [9] = test: Antibacterial activity against Staphylococcus aureus ATCC 29213 assessed as bacterial growth inhibition in presence of 50 ug/ml calcium ions by CLSI protocol based broth microdilution method

Molecule CCCCCCCCCC(=O)N[C@@H](Cc1cccc2ccccc12)C(=O)N[C@@H](CC(N)=O)C(=O)N[C@@H](CC(=O)O)C(=O)N[C@@H]1C(=O)NCC(=O)N[C@@H](CCCN)C(=O)N[C@@H](CC(=O)O)C(=O)N[C@H](C)C(=O)N[C@@H](CC(=O)O)C(=O)NCC(=O)N[C@H](CO)C(=O)N[C@@H]([C@@H](C)CC(=O)O)C(=O)N[C@@H](CC(=O)c2ccccc2N)C(=O)O[C@@H]1C has an MIC (Staphylococcus aureus [1]) of 0.125 µg/mL, an MIC (Staphylococcus aureus [2]) of 0.25 µg/mL and an MIC (Enterococcus [3]) of 2 µg/mL. The MIC (Enterococcus faecalis [4]) was 2 µg/mL, the MIC (Enterococcus faecalis [5]) was 0.5 µg/mL and the MIC (Staphylococcus aureus [6]) was 1 µg/mL. It also gave an MIC (Staphylococcus aureus [7]) of 0.25 µg/mL, an MIC (Enterococcus [8]) of 2 µg/mL and an MIC (Staphylococcus aureus [9]) of 0.25 µg/mL.
Work on CCCCCCCCCC(=O)N[C@@H](Cc1c[nH]c2ccccc12)C(=O)N[C@@H](CC(N)=O)C(=O)N[C@@H](CC(=O)O)C(=O)N[C@@H]1C(=O)NCC(=O)N[C@@H](CCSC)C(=O)N[C@@H](CC(=O)O)C(=O)N[C@H](C)C(=O)N[C@@H](CC(=O)O)C(=O)NCC(=O)N[C@H](CO)C(=O)N[C@@H]([C@@H](C)CC(=O)O)C(=O)N[C@@H](CC(=O)c2ccccc2N)C(=O)O[C@@H]1C yielded an MIC (Staphylococcus aureus [1]) of no less than 32 µg/mL, an MIC (Staphylococcus aureus [2]) of no less than 32 µg/mL and an MIC (Enterococcus [3]) of 32 µg/mL. The MIC (Enterococcus faecalis [4]) was no less than 32 µg/mL, the MIC (Enterococcus faecalis [5]) was no less than 32 µg/mL and the MIC (Staphylococcus aureus [6]) was no less than 32 µg/mL. It also gave an MIC (Staphylococcus aureus [7]) of no less than 32 µg/mL, an MIC (Enterococcus [8]) of no less than 32 µg/mL and an MIC (Staphylococcus aureus [9]) of no less than 32 µg/mL.
Molecule C[C@H]1NC(=O)[C@H](CC(=O)O)NC(=O)[C@H](CCCN)NC(=O)CNC(=O)[C@@H](NC(=O)[C@H](CC(=O)O)NC(=O)[C@H](CC(N)=O)NC(=O)[C@H](Cc2c[nH]c3ccccc23)NC(=O)c2ccc(C#CC#Cc3ccccc3)cc2)[C@@H](C)OC(=O)[C@H](CC(=O)c2ccccc2N)NC(=O)[C@H]([C@@H](C)CC(=O)O)NC(=O)[C@@H](CO)NC(=O)CNC(=O)[C@H](CC(=O)O)NC1=O has an MIC (Staphylococcus aureus [1]) of 0.5 µg/mL, an MIC (Staphylococcus aureus [2]) of 0.5 µg/mL and an MIC (Enterococcus [3]) of 1 µg/mL. For the same molecule, the MIC (Enterococcus faecalis [4]) was 1 µg/mL, the MIC (Enterococcus faecalis [5]) was 1 µg/mL and the MIC (Staphylococcus aureus [6]) was 1 µg/mL. The MIC (Staphylococcus aureus [7]) was 0.5 µg/mL, the MIC (Enterococcus [8]) was 4 µg/mL and the MIC (Staphylococcus aureus [9]) was 0.5 µg/mL.
For CCCCCCCCCC(=O)N[C@@H](Cc1ccc2ccccc2c1)C(=O)N[C@@H](CC(N)=O)C(=O)N[C@@H](CC(=O)O)C(=O)N[C@@H]1C(=O)NCC(=O)N[C@@H](CCCN)C(=O)N[C@@H](CC(=O)O)C(=O)N[C@H](C)C(=O)N[C@@H](CC(=O)O)C(=O)NCC(=O)N[C@H](CO)C(=O)N[C@@H]([C@@H](C)CC(=O)O)C(=O)N[C@@H](CC(=O)c2ccccc2N)C(=O)O[C@@H]1C, the MIC (Staphylococcus aureus [1]) was 0.125 µg/mL, the MIC (Staphylococcus aureus [2]) was 0.125 µg/mL and the MIC (Enterococcus [3]) was 0.5 µg/mL. For the same molecule, the MIC (Enterococcus faecalis [4]) was 1 µg/mL, the MIC (Enterococcus faecalis [5]) was 0.25 µg/mL and the MIC (Staphylococcus aureus [6]) was 0.5 µg/mL. The MIC (Staphylococcus aureus [7]) was 0.06 µg/mL, the MIC (Enterococcus [8]) was 4 µg/mL and the MIC (Staphylococcus aureus [9]) was 0.25 µg/mL.
CCCCCCCCCC(=O)N[C@@H](Cc1c[nH]c2ccccc12)C(=O)N[C@@H](C)C(=O)N[C@@H](CC(=O)O)C(=O)N[C@@H]1C(=O)NCC(=O)N[C@@H](CCCN)C(=O)N[C@@H](CC(=O)O)C(=O)N[C@H](C)C(=O)N[C@@H](CC(=O)O)C(=O)NCC(=O)N[C@H](CO)C(=O)N[C@@H]([C@@H](C)CC(=O)O)C(=O)N[C@@H](CC(=O)c2ccccc2N)C(=O)O[C@@H]1C was tested, and the MIC (Staphylococcus aureus [1]) was 16 µg/mL, the MIC (Staphylococcus aureus [2]) was no less than 32 µg/mL and the MIC (Enterococcus [3]) was 32 µg/mL. For the same molecule, the MIC (Enterococcus faecalis [4]) was 64 µg/mL, the MIC (Enterococcus faecalis [5]) was 16 µg/mL and the MIC (Staphylococcus aureus [6]) was no less than 32 µg/mL. For the same molecule, the MIC (Staphylococcus aureus [7]) was no less than 32 µg/mL, the MIC (Enterococcus [8]) was 64 µg/mL and the MIC (Staphylococcus aureus [9]) was no less than 32 µg/mL.
For CCCCCCCCCC(=O)N[C@@H](Cc1ccncc1)C(=O)N[C@@H](CC(N)=O)C(=O)N[C@@H](CC(=O)O)C(=O)N[C@@H]1C(=O)NCC(=O)N[C@@H](CCCN)C(=O)N[C@@H](CC(=O)O)C(=O)N[C@H](C)C(=O)N[C@@H](CC(=O)O)C(=O)NCC(=O)N[C@H](CO)C(=O)N[C@@H]([C@@H](C)CC(=O)O)C(=O)N[C@@H](CC(=O)c2ccccc2N)C(=O)O[C@@H]1C, the MIC (Staphylococcus aureus [1]) was no less than 32 µg/mL, the MIC (Staphylococcus aureus [2]) was no less than 32 µg/mL and the MIC (Enterococcus [3]) was no less than 32 µg/mL. The MIC (Enterococcus faecalis [4]) was no less than 32 µg/mL, the MIC (Enterococcus faecalis [5]) was no less than 32 µg/mL and the MIC (Staphylococcus aureus [6]) was no less than 32 µg/mL. The MIC (Staphylococcus aureus [7]) was no less than 32 µg/mL, the MIC (Enterococcus [8]) was no less than 32 µg/mL and the MIC (Staphylococcus aureus [9]) was no less than 32 µg/mL.
With CCCCCCCCCC(=O)N[C@@H](Cc1c[nH]c2ccccc12)C(=O)N[C@@H](CC(N)=O)C(=O)N[C@@H](CC(=O)O)C(=O)N[C@@H]1C(=O)NCC(=O)N[C@@H](CCC(N)=O)C(=O)N[C@@H](CC(=O)O)C(=O)N[C@H](C)C(=O)N[C@@H](CC(=O)O)C(=O)NCC(=O)N[C@H](CO)C(=O)N[C@@H]([C@@H](C)CC(=O)O)C(=O)N[C@@H](CC(=O)c2ccccc2N)C(=O)O[C@@H]1C the MIC (Staphylococcus aureus [1]) was 4 µg/mL, the MIC (Staphylococcus aureus [2]) was no less than 32 µg/mL and the MIC (Enterococcus [3]) was no less than 32 µg/mL. It also gave an MIC (Enterococcus faecalis [4]) of no less than 32 µg/mL, an MIC (Enterococcus faecalis [5]) of no less than 32 µg/mL and an MIC (Staphylococcus aureus [6]) of no less than 32 µg/mL. For the same molecule, the MIC (Staphylococcus aureus [7]) was 4 µg/mL, the MIC (Enterococcus [8]) was no less than 32 µg/mL and the MIC (Staphylococcus aureus [9]) was 4 µg/mL.
